This is an account of results in paper PMC8457056, “Remodeling of the Fibrillation Pathway of α‐Synuclein by Interaction with Antimicrobial Peptide LL‐III” (Chemistry (Weinheim an Der Bergstrasse, Germany), 2021).

The test system of data set [1] is several bacterial strains, fungi. To be noted: ref [28]; cited from earlier work. The text has this:
(§1) Antimicrobial peptides (AMPs) are a particular class of disordered proteins. They form an important part of the immune system of all living organisms and are considered as the first line of defense against infections caused by pathogens.[25, 26, 27] […] The LL‐III is a posi ...

For data set [2] the following is noted: ref [28]; cited from earlier work.
Description: as §1

For data set [3], the system named is cancer cells. Conditions: cited from earlier work.
Description: as §1

Data set [4] concerns α‐Syn droplets. The data set is described as follows: fluorescence microscopy, partitioning of LL-III in α-Syn droplets. It is filed as binding, human. Conditions: 100 μM α-Syn, pH 5.0, 25 °C. The protocol:
Figure 1 A) Phase‐contrast light microscopy snapshots of 100 μM and 200 μM α‐Syn solutions collected 2, 4, 7, 9 and 16 days after incubation of the monomeric α‐Syn. B) Phase‐contrast light microscopy snapshots of a solution of 100 μM α‐Syn in the presence of the reported concentration of antimicrobial peptide LL‐III. Each sample was prepared by mixing the monomeric form of α‐Syn with LL‐III. The pictures were taken after 9 and 16 days of incubation. For the snapshots after 16 days, at each peptide concentration, two different regions of the cover slip were sampled, showing the presence of discrete droplets as well as droplet clusters in solution. C) Phase‐contrast light and fluorescence microscopy snapshots of a 100 μM α‐Syn solution in the presence of 50 μM LL‐III (total peptide concentration, the concentration of the carboxyfluorescein‐labelled peptide was 1 μM). All the experiments were performed at room temperature (25 °C) in 20 mM sodium acetate buffer, pH 5.0. […]
To reveal if the short antimicrobial peptide LL‐III is able to affect the fibril formation of α‐Syn, we performed a series of microscopy experiments by using 100 μM of α‐Syn and varying the concentration of LL‐III between 50 μM and 500 μM. […] To confirm partitioning of the LL‐III peptide in the α‐Syn droplets, complementary fluorescence microscopy experiments were performed using a carboxyfluorescein‐labelled LL‐III peptide. […]

Consider NH2-VNWKKIL GKIIKVVK -CONH2 [LL‐III], for which, in data set [1], the “activity against several bacterial strains, fungi” value is “remarkable activity”. Moreover, the cytotoxicity entry in data set [2] is “moderate cytotoxicity”. In data set [3] (ref [22]), the cellular localization result was “localizing mainly in the nucleolus and in granules”; the “translocation across plasma membrane” value is listed as “able to translocate across the plasma membrane of cancer cells”. The “activity against cancer cells” value in data set [3] (ref [28]) is recorded as “remarkable activity”. Further, the “partitioning in α-Syn droplets” value in data set [4] (50 μM LL-III of which 1 μM carboxyfluorescein-labelled, 20 mM sodium acetate, excitation 488 nm) is on record as “most of the LL‐III peptide was localized in the α‐Syn droplets”. The “droplet clusters after 16 days” value in data set [4] (16 days) is given as “formation of LL‐III‐enriched droplet clusters were observed after 16 days”.
